From US12428427B2, “Methods and compositions for targeting PD-L1” (Aligos Therapeutics, Inc., priority 2021, dated 2025)

Key:
[1] = target: PDL1/PD1 (Homo sapiens, UniProt Q9NZQ7); assay: PDL1/PD1 Binding Assay; conditions: PDL1-6×His 0.3 nM, PD1-Fc-Avi-Biotin 2.5 nM, Acceptor/Donor beads; read-out: PD-1/PD-L1 PPI IC50
Protocol: Compounds to be tested were serially diluted in DMSO, and further diluted in assay buffer (25 mM Hepes pH 7.4, 150 mM NaCl, 0.005% Tween 20, BSA 0.01%). Diluted compounds were added to the wells with final concentration of DMSO at 1%. PDL1-6×His protein was added to the wells, mixed well with compound. The plates were incubated for 30 min at room temperature. PD1-Fc-Avi-Biotin protein was added to the wells. Final concentration of PDL1 and PD1 protein is 0.3 nM and 2.5 nM, respectively. After a binding time of 30 min at room temperature, Anti-6×His Acceptor beads (final concentration 20 ug/ml) were added to the wells, and the incubation continued for 1 h. Streptavidin Donor beads (final concentration 20 ug/mL) were added at reduced light. The plates were sealed with foil and incubated in the dark for additional 1 h or overnight before reading on an Envision reader. The IC50 values were determined by fitting the curves using a four-parameter equation in Graphpad Prism 8.

[2] = target: T1, PD-1/PD-L1 interaction (Homo sapiens, UniProt Q9NZQ7); assay: PD-1/PD-L1 NFAT Reporter Assay; assay type: cell-based; conditions: co-culture of PD-L1 expressing CHO cells and PD-1 overexpressing Jurkat cells, 6 hrs, NFAT luciferase
T1 construct: expressed in transfected cells; Jurkat cells (PD-1 plus NFAT-luciferase)
T1 sequence (Q9NZQ7 19-290): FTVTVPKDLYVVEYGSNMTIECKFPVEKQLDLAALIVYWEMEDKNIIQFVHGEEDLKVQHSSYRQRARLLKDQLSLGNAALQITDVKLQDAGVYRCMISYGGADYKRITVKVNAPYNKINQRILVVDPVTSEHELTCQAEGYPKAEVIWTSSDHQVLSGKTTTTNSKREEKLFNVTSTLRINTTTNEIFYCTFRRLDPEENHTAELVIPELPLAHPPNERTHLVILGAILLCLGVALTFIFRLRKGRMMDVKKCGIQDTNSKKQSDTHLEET
Protocol: Blocking the PD-1/PD-L1 interaction will release the inhibitory signal and results in TCR signaling and NFAT-mediated luciferase activity.
CHO cells expressing surface-bound anti-CD3 antibodies and PD-L1 were first seeded overnight and treated with the compounds. Jurkat cells overexpressing PD-1 and a luciferase construct under NFAT promoter were then immediately seeded on the monolayer of CHO cells. The co-culture was then incubated for 6 hrs at 37° C. Luciferase activity was assessed by adding the ONE-Glo reagent and measuring luminescence with a plate reader. EC50 values were determined from the fit of the dose-response curves.

Sequence of PDL1/PD1 (Q9NZQ7 19-238 limits assumed): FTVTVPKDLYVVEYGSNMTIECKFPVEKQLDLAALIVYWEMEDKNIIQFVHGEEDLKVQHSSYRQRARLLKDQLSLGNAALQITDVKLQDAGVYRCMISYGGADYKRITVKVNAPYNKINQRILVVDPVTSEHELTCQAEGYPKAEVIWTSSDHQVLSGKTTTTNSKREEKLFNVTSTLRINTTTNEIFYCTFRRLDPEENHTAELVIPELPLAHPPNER

| IC50 [1] [nM] | EC50 [2] [nM] | SMILES |
| --- | --- | --- |
| ≤ 10 | 10 to 100 | COc1nc(-c2cccc(-c3cccc(NC(=O)c4ccnn(C)c4=O)c3C)c2Cl)cc(C)c1CN1CC(C(=O)O)C1 [Compound C-91] |
| ≤ 10 | 10 to 100 | COc1nc(-c2cccc(-c3cccc(NC(=O)c4ccnn(C)c4=O)c3Cl)c2Cl)ccc1CN1CC[C@@H](C(=O)O)C1 [Compound C-16] |
|  | > 5000 | CCOC(=O)[C@@H]1CN(Cc2ccc(-c3cccc(-c4cccc(NC(=O)c5ccnn(C)c5=O)c4Cl)c3Cl)nc2OC)C(=O)O1 [Compound H-1] |
| ≤ 10 | 10 to 100 | COc1nc(-c2cccc(-c3cccc(NC(=O)c4ccnn(C)c4=O)c3Cl)c2Cl)cc(C)c1CN1CC(C(=O)O)C1 [Compound C-88] |
| ≤ 10 | 100 to 1000 | COc1nc(-c2cccc(-c3cccc(NC(=O)c4ccnn(C)c4=O)c3Cl)c2Cl)ccc1CN1CC2(C(=O)O)CCC1CC2 [Compound C-27] |
| ≤ 10 | 100 to 1000 | COc1nc(-c2cccc(-c3cccc(NC(=O)c4ccnn(C)c4=O)c3Cl)c2Cl)ccc1CN[C@H](C(=O)O)C(C)C [Compound C-28] |
| ≤ 10 | 10 to 100 | COc1nc(-c2cccc(-c3cccc(NC(=O)c4ccnn(C)c4=O)c3Cl)c2Cl)ccc1CN1CC[C@H](C(=O)O)C1 [Compound C-17] |
|  | 100 to 1000 | CCOC(=O)CCN(Cc1ccc(-c2cccc(-c3cccc(NC(=O)c4ccnn(C)c4=O)c3Cl)c2Cl)nc1OC)C(=O)OCc1oc(=O)oc1C [Compound F-1] |
| ≤ 10 | ≤ 10 | COc1nc(-c2cccc(-c3cccc(NC(=O)c4ccnn(C)c4=O)c3C)c2Cl)cc(C)c1CNC[C@@H]1CCC(=O)N1 [Compound B-7] |
|  | ≤ 10 | COc1nc(-c2cccc(-c3cccc(NC(=O)c4ccnn(C)c4=O)c3Cl)c2Cl)cnc1CN1CC[C@H](O)C1 [Compound C-85] |
|  | 10 to 100 | CCOC(=O)[C@@H](O)CNCc1ccc(-c2cccc(-c3cccc(NC(=O)c4ccnn(C)c4=O)c3Cl)c2Cl)nc1OC [Compound G-1] |
| ≤ 10 | 100 to 1000 | COc1nc(-c2cccc(-c3cccc(NC(=O)c4ccnn(C)c4=O)c3C)c2Cl)cnc1CNC[C@@H]1CCC(=O)N1 [Compound B-5] |
| 10 to 100 | 10 to 100 | CCOC(=O)[C@@H]1CCN(Cc2ccc(-c3cccc(-c4cccc(NC(=O)c5ccnn(C)c5=O)c4Cl)c3Cl)nc2OC)C1 [Compound C-14] |
| ≤ 10 | 10 to 100 | COc1nc(-c2cccc(-c3cccc(NC(=O)c4ccnn(C)c4=O)c3C)c2Cl)ccc1CN1CC(NC(C)=O)C1 [Compound C-63] |
| ≤ 10 | 10 to 100 | COc1nc(-c2cccc(-c3cccc(NC(=O)c4ccnn(C)c4=O)c3Cl)c2Cl)ccc1CNC[C@@H]1CCC(=O)N1 [Compound B-2] |
| ≤ 10 | 10 to 100 | COc1nc(-c2cccc(-c3cccc(NC(=O)c4ccnn(C)c4=O)c3Cl)c2Cl)ccc1CN1CCC[C@@H]1CC(=O)O [Compound C-33] |
| ≤ 10 |  | CCOC(=O)C1(C)CN(Cc2ccc(-c3cccc(-c4cccc(NC(=O)c5ccnn(C)c5=O)c4C)c3Cl)nc2OC)C1 [Compound C-59] |
|  | 100 to 1000 | COc1nc(-c2cccc(-c3cccc(NC(=O)c4ccnn(C)c4=O)c3C)c2Cl)ccc1CN1CC(F)(C(=O)O)C1 [Compound C-62] |
| ≤ 10 | 100 to 1000 | COc1nc(-c2cccc(-c3cccc(NC(=O)c4ccnn(C)c4=O)c3Cl)c2Cl)ccc1CN1C[C@@H](C(=O)O)C(C)(C)C1 [Compound C-48] |
| ≤ 10 | 10 to 100 | COc1nc(-c2cccc(-c3cccc(NC(=O)c4ccnn(C)c4=O)c3Cl)c2Cl)ccc1CNCC(C)(C)O [Compound C-5] |
| ≤ 10 | 100 to 1000 | COc1nc(-c2cccc(-c3cccc(NC(=O)c4ccnn(C)c4=O)c3Cl)c2Cl)ccc1CN[C@H]1CCC[C@H]1C(=O)O [Compound C-40] |
| 10 to 100 | 100 to 1000 | CCOC(=O)C1(C)CN(Cc2ccc(-c3cccc(-c4cccc(NC(=O)c5ccnn(C)c5=O)c4Cl)c3Cl)nc2OC)C1 [Compound C-21] |
| ≤ 10 | 10 to 100 | COc1nc(-c2cccc(-c3cccc(NC(=O)c4ccnn(C)c4=O)c3Cl)c2Cl)ccc1CNCCCC(=O)O [Compound C-25] |
| ≤ 10 | 10 to 100 | COc1nc(-c2cccc(-c3cccc(NC(=O)c4ccnn(C)c4=O)c3Cl)c2Cl)ccc1CNC[C@H](O)C(=O)O [Compound C-38] |
| ≤ 10 | 10 to 100 | COc1nc(-c2cccc(-c3cccc(NC(=O)c4ccnn(C)c4=O)c3Cl)c2Cl)ccc1CNC1CC1 [Compound C-6] |

| IC50 [1] [nM] | EC50 [2] [nM] | SMILES |
| --- | --- | --- |
|  | 10 to 100 | COc1nc(-c2cccc(-c3cccc(NC(=O)c4ccnn(C)c4=O)c3Cl)c2Cl)cnc1CN1CC(O)C1 [Compound C-84] |
|  | ≤ 10 | COc1nc(-c2cccc(-c3cccc(NC(=O)c4ccnn(C)c4=O)c3C)c2C)ccc1CN[C@@H]1CCOC[C@@H]1O [Compound C-71] |
| ≤ 10 | 10 to 100 | COc1nc(-c2cccc(-c3cccc(NC(=O)c4ccnn(C)c4=O)c3Cl)c2Cl)ncc1CN1CC(C(=O)O)C1 [Compound C-80] |
|  | 10 to 100 | COc1nc(-c2cccc(-c3cccc(NC(=O)c4ccnn(C)c4=O)c3Cl)c2Cl)ccc1CN1CC(C(=O)NS(C)(=O)=O)C1 [Compound C-46] |
| ≤ 10 | 10 to 100 | COC(=O)C1(F)CN(Cc2ccc(-c3cccc(-c4cccc(NC(=O)c5ccnn(C)c5=O)c4C)c3Cl)nc2OC)C1 [Compound C-61] |
| 10 to 100 | > 5000 | CCOC(=O)N(Cc1ncc(-c2cccc(-c3cccc(NC(=O)c4ccnn(C)c4=O)c3C)c2Cl)nc1OC)C[C@@H]1CCC(=O)N1 [Compound D-2] |
| ≤ 10 | 10 to 100 | COc1nc(-c2cccc(-c3cccc(NC(=O)c4ccnn(C)c4=O)c3C)c2Cl)ccc1CN1CC2(C1)CN(C(C)=O)C2 [Compound C-64] |
|  | > 5000 | COc1nc(-c2cccc(-c3cccc(NC(=O)c4ccnn(C)c4=O)c3C)c2Cl)ccc1CN[C@@H]1CCOC[C@@H]1O [Compound C-52] |
| ≤ 10 | 10 to 100 | COc1nc(-c2cccc(-c3cccc(NC(=O)c4ccnn(C)c4=O)c3Cl)c2Cl)ccc1CNC[C@@H](C)C(=O)O [Compound C-37] |
| ≤ 10 | 10 to 100 | COc1cc(C(=O)Nc2cccc(-c3cccc(-c4ccc(CN[C@@H]5CCOC[C@@H]5O)c(OC)n4)c3Cl)c2Cl)c(=O)n(C)n1 [Compound C-92] |
| ≤ 10 | 10 to 100 | COc1nc(-c2cccc(-c3cccc(NC(=O)c4ccnn(C)c4=O)c3Cl)c2Cl)c(F)cc1CN1CC(C(=O)O)C1 [Compound C-76] |
| ≤ 10 | 10 to 100 | CCOC(=O)[C@H]1CCN(Cc2ccc(-c3cccc(-c4cccc(NC(=O)c5ccnn(C)c5=O)c4C)c3Cl)nc2OC)C1 [Compound C-55] |
| ≤ 10 | 10 to 100 | COc1nc(-c2cccc(-c3cccc(NC(=O)c4ccnn(C)c4=O)c3Cl)c2Cl)ccc1CN1CC(O)(C(=O)O)C1 [Compound C-41] |
| ≤ 10 | ≤ 10 | COc1nc(-c2cccc(-c3cccc(NC(=O)c4ccnn(C)c4=O)c3Cl)c2Cl)c(F)cc1CN[C@@H]1CCOC[C@@H]1O [Compound C-75] |
| ≤ 10 | 10 to 100 | COc1nc(-c2cccc(-c3cccc(NC(=O)c4ccnn(C)c4=O)c3Cl)c2Cl)ccc1CN1C[C@H](C(=O)O)C(C)(C)C1 [Compound C-31] |
| ≤ 10 | 10 to 100 | COC(=O)C1(F)CN(Cc2ccc(-c3cccc(-c4cccc(NC(=O)c5ccnn(C)c5=O)c4Cl)c3Cl)nc2OC)C1 [Compound C-18] |
| ≤ 10 | 10 to 100 | COc1nc(-c2cccc(-c3cccc(NC(=O)c4ccnn(C)c4=O)c3Cl)c2Cl)ccc1CN[C@@H](C)C(=O)O [Compound C-29] |
| ≤ 10 | 10 to 100 | COc1nc(-c2cccc(-c3cccc(NC(=O)c4ccnn(C)c4=O)c3Cl)c2Cl)ccc1CN1CC(C)(C(=O)O)C1 [Compound C-20] |
|  | ≤ 10 | COc1nc(-c2cccc(-c3cccc(NC(=O)c4ccnn(C)c4=O)c3C)c2Cl)cnc1CN1CC(O)C1 [Compound C-86] |
|  | 10 to 100 | COc1nc(-c2cccc(-c3cccc(NC(=O)c4ccnn(C)c4=O)c3Cl)c2Cl)cnc1CN[C@@H]1CCOC[C@@H]1O [Compound C-83] |
|  | 10 to 100 | CCOC(=O)CCNCc1ccc(-c2cccc(-c3cccc(NC(=O)c4ccnn(C)c4=O)c3Cl)c2Cl)nc1OC [Compound C-94] |
|  | 10 to 100 | COc1nc(-c2cccc(-c3cccc(NC(=O)c4ccnn(C)c4=O)c3Cl)c2Cl)ccc1CN[C@@H]1CN(C(C)=O)C[C@@H]1O [Compound C-45] |
|  | 10 to 100 | COc1nc(-c2cccc(-c3cccc(NC(=O)c4ccnn(C)c4=O)c3Cl)c2Cl)ccc1CNCCC(=O)O [Compound C-93] |
|  | > 5000 | COc1nc(-c2cccc(-c3cccc(NC(=O)c4ccnn(C)c4=O)c3C)c2C)ccc1CN1C[C@@H](O)[C@@H]1C [Compound C-74] |
